In US20250302927A1, “MODIFIED FACTOR XA POLYPEPTIDES AND METHODS OF USE” (The United States of America, as represented by the …, priority 2022, published 2025):

Experiments:
Male CD-1 mice = test: Tail clip bleeding model; format: in vivo; settings: for Bleeding profile (bleeding graphs): apixaban 4 mg/kg, FIG. 4D
Method: Tail clip bleeding model: Animal experiments were performed at the U.S. FDA/CBER Division of Veterinary Services in accordance with the protocol approved by the institutional animal care and use committee (IACUC). Male CD-1 mice (Charles River Laboratories, Kingston, NY, USA) were 5-8 weeks old weighing 28-34 grams. […] After 5 minutes, 3 mm of tail were cut, after which the tail was immersed in a tube with predefined volume of 0.9% NaCl at 37° C. and allowed to bleed for 30 minutes under close observation. Blood loss was determined by measuring hemoglobin content and expressed as μl/mouse.
The design of the in vivo study in mice is depicted in FIG. 3B. […] The tails of the mice were clipped, and bleeding monitored by measuring bleeding time (FIG. 3C) and blood loss (FIG. 3D). […] All bleeding episodes were plotted using the length and number of episodes of bleeds for each individual mouse (FIG. 3E) to determine the bleeding profiles.
Additional experiments were performed in the mouse model, as above, but with the inclusion of andexanet alfa for comparison. The experimental strategy is depicted in FIG. 4A.

Factor VII (FVII) = biological target: T1, Factor VII (FVII) (Homo sapiens, UniProt P08709); test: 1H NMR binding of apixaban to Factor VII; settings: stoichiometric amounts, FIG. 1H
T1 sequence (P08709 61-466): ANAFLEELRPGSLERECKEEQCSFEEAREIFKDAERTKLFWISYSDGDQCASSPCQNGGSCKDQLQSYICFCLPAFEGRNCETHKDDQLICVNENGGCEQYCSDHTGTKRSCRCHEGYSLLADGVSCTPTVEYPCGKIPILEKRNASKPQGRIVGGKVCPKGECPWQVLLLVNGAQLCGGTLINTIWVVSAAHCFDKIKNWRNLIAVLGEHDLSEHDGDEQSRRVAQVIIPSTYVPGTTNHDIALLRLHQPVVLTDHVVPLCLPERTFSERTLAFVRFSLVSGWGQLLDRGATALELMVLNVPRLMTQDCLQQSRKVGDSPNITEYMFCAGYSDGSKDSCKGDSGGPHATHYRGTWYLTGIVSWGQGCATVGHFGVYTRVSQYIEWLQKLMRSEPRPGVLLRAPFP
Description: FIGS. 1A-1H show design and functional characterization of low affinity FXa variants. FIG. 1A illustrates the computational strategy using RosettaDesign and homology insertion. […] Variants 69 and 70 are located on the same region between H311 and T318. […] FIG. 1F is a graph showing the rate of chromogenic substrate cleavage in pure buffer systems by FXa variants at different concentrations. […] Values for IC50±SD were obtained from fitted curves. […] The top spectrum is the result of superposition of ligand and protein signals with no alteration. The reference NMR spectrum (middle) contains only sharp signals, as expected for an NMR spectrum of a small molecule.
The final models allowed identification of clashes with apixaban. Following manual inspection of the models, 21 designs were selected. […] (ii) Two proteins were used as homology models to identify potential mutations to include as insertions. The human factor VII (FVII) (PDB ID: 1DAN) crystal structure was superimposed onto the human FXa (PDB ID: 2P16) crystal structure and differences in amino acid identity were analyzed. Final insertion identities were based on proximity to binding pocket and length. […] Seven FXa variants were selected based on this strategy. Some of these designs failed experimental validations. In a follow up round of homology-based designs, the insertions from Factor VII were decreased in length and number. […]

[1] = Inhibition of FXa variant chromogenic substrate cleavage by apixaban (IC50); format: biochemical, human; settings: for IC50: apixaban, fixed amounts of FXa variants, increasing apixaban concentrations
Method: Chromogenic FXa activity assay: The FXa activity assay based on CS11(65)a chromogenic substrate (Biophen) was performed as described below. […] For each sample, substrate cleavage was calculated by taking the average rate over the time frame between 1 and 2 minutes.
Activity and inhibitory concentration were determined for a larger series of variants (FIGS. 2A and 2B). Activities for all variants were determined using the rate of chromogenic substrate cleavage in pure buffer system at different FXa concentrations. Variants were assigned into five brackets (FIG. 2A). […] To be assigned as potentially beneficial the combined scores were ***** but the individual score could not be less than **.

[2] = tested on: tissue factor (TF)-triggered pooled normal human plasma; test: Thrombin generation assay in plasma spiked with apixaban; format: biochemical
Method: Thrombin generation assay: The procoagulant activity of FXa variants was evaluated by a previously described thrombin generation assay in tissue factor (TF)-triggered pooled normal human plasma (Affinity Biologicals Inc, Ontario, Canada). […] Fluorescence (product of thrombin substrate consumption) was recorded in a kinetic mode at 37° C. using a Tecan Infinite F500 every 45 seconds for a period of 1.7 hours. In-house software was used to calculate calibrate thrombin generation assay (using an internal thrombin calibrator CAT® from Stago, Parsippany, NJ, USA) and calculate thrombin peak height parameter.

[3] = biological target: T2, Tissue factor pathway inhibitor (TFPI) (Homo sapiens, UniProt P10646); test: ACTICHROME TFPI assay; format: biochemical; settings: 4 nM variants vs 100 nM andexanet alfa, FIG. 5
T2 construct: BioMedica Diagnostics (assay kit)
T2 sequence (P10646 29-304): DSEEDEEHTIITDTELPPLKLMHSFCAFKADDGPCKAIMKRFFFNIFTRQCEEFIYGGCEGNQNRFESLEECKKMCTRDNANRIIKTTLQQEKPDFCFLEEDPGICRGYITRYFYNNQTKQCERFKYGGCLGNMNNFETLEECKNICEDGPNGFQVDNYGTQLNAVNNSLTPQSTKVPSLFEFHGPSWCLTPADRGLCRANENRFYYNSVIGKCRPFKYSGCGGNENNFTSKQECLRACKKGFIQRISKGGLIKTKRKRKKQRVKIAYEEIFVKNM
Method: Tissue factor pathway inhibitor (TFPI) plays a very important role in regulation of the procoagulant activity of tissue factor (TF). […] TFPI activity was determined using ACTICHROME® TFPI assay (BioMedica Diagnostics) according to manufacturer's protocol.

[4] = biological target: Tissue factor pathway inhibitor (TFPI), P10646

## COc1ccc(-n2nc(C(N)=O)c3c2C(=O)N(c2ccc(N4CCCCC4=O)cc2)CC3)cc1 [apixaban, reference compound]
Male CD-1 mice
  Bleeding profile (bleeding graphs): mostly uninterrupted flow of blood
Male CD-1 mice; tail clip, FIG. 3C
  Bleeding time, apixaban group compared to the control group: significantly greater
Factor VII (FVII)
  binding to FVII by NMR: does not bind to FVII

## Variant 61: modified Factor Xa polypeptide, W439A, S4 subsite, SEQ ID NO: 2
[1]; FIG. 1G
  fold higher IC50 values for apixaban compared to the wild-type FXa: ~350 fold
[1]
  IC50: > 251 nM
[2]; activity in the presence of a fixed amount (1 μM) of apixaban, read-out: apparent Km
  Km: 1.1 ± 0.171 µM
[2]; thrombin generation assay as worded
  potency compared with wild type FXa: less potent than wild type FXa
Male CD-1 mice; 1 mg/kg infused 5 min after apixaban, FIG. 3C
  Bleeding time: significantly reduced bleeding time
Male CD-1 mice; 1 mg/kg infused 5 min after apixaban, FIG. 3D
  Blood loss: successfully reversed the anticoagulant effect of apixaban
Male CD-1 mice
  Bleeding profile (bleeding graphs): multiple breaks in blood flowing from the tail cut
Male CD-1 mice; apixaban dose of 4 mg/kg, FIG. 4B
  Bleeding time: significant decrease
Male CD-1 mice; apixaban dose of 4 mg/kg, FIG. 4C
  Blood loss: significant decrease
[3]
  response to TFPI (TFPI activity): much smaller response to TPFI compared to andexanet alfa

## Variant 65: modified Factor Xa polypeptide, G440A, S1 subsite, SEQ ID NO: 8
[1]
  IC50: 151 to 250 nM

B1: FXa variant 70 (amino acids 312-317 replaced with STYVPG) (protein)
chain: GPANSFLEEMKKGHLERECMEETCSYEEAREVFEDSDKTNEFWNKYKDGDQCETSPCQNQGKCKDGLGEYTCTCLEGFEGKNCELFTRKLCSLDNGDCDQFCHEEQNSVVCSCARGYTLADNGKACIPTGPYPCGKQTLERRKRSVAQATSSSGEAPDSITWKPYDAADLDPTENPFDLLDFNQTQPERGDNNLTRIVGGQECKDGECPWQALLINEENEGFCGGTILSEFYILTAAHCLYQAKRFKVRVGDRNTEQEEGGEAVHEVEVVIKHSTYVPGTYDFDIAVLRLKTPITFRMNVAPACLPERDWAESTLMTQKTGIVSGFGRTHEKGRQSTRLKMLEVPYVDRNSCKLSSSFIITQNMFCAGYDTKQEDACQGDSGGPHVTRFKDTYFVTGIVSWGEGCARKGKYGIYTKVTAFLKWIDRSMKTRGLPKAKSHAPEVITSSPLK
[4]
  TFPI activity (ACTICHROME TFPI assay): both variants #61 and #70 showed much smaller response to TPFI compared to andexanet alfa
